Measured values as given in US10562850B2, “Human plasma kallikrein inhibitors” (priority 2015, dated 2020).

Biological target: human plasma kallikrein (Homo sapiens (Human), UniProt P03952)
Experiment: Plasma Kallikrein Activity Assay (chromogenic substrate S2302)
Assay type: biochemical
Details: 2 nM kallikrein, 80 μM S2302, 30° C., pH 7.8; Cheng-Prusoff
Method: Plasma Kallikrein Activity Assay.
The effect of compounds of the invention on human plasma kallikrein activity was determined using the chromogenic substrates (DiaPharma Group, Inc., West Chester, Ohio, USA). In these experiments, 2 nM kallikrein (Enzyme Research Laboratories, South Bend, Ind., USA) was incubated with 80 μM S2302 (H-D-Pro-Phe-Arg-p-nitroaniline) in the absence or presence of increasing concentrations of compounds of the invention in a final volume of 200 μL Tris-HCl buffer (200 mM NaCl; 2.5 mM CaCl2; 50 mM Tris-HCl, pH 7.8).
After incubation at 30° C., the activity of kallikrein was measured as a change in absorbance at OD 405 nm using BioTek PowerWave X340 Microplate Reader (Winooski, Vt., USA). Data were analyzed using SigmaPlot software (Systat Software, Inc., San Jose, Calif., USA) (Four Parameter Logistic Curve). Ki values for the inhibitors were determined using the Cheng-Prusoff equation (Biochem. Pharmacol. 1973, 22, 3099).

Chain of human plasma kallikrein (P03952 391-638): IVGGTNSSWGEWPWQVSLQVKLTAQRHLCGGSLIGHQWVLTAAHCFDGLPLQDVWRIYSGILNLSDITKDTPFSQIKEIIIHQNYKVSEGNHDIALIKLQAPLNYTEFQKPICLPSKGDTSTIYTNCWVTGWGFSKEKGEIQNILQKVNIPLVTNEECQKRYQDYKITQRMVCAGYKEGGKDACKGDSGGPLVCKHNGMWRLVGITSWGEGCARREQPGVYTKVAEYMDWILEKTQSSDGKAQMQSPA
Chain of human plasma kallikrein (P03952 20-390 partner): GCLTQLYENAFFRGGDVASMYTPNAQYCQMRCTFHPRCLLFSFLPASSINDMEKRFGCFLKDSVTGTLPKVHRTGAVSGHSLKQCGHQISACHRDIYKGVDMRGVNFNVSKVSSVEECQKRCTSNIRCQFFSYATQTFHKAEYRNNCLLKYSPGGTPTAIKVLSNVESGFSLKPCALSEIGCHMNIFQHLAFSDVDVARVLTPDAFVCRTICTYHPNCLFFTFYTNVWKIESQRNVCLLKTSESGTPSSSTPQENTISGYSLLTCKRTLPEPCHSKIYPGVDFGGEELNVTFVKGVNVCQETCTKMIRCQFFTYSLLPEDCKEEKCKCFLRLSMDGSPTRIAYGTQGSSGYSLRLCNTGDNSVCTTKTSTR

Work on `CC(C)(C)[S@@+]([O-])NC(CCC1CC1)(c1cccc(C#N)c1)c1ccc(F)c(NC(=O)[C@@H]2C[C@@H](O)CN2C(=O)Nc2ccc(Cl)cc2)c1` (stereo partly drawn) [Compound 5d, (2S,4R)-N1-(4-chlorophenyl)-N2-(5-((−)-1-(3-cyanophenyl)-3-cyclopropyl-1-((R)-1,1-dimethylethylsulfinamido)propyl)-2-fluorophenyl)-4-hydroxypyrrolidine-1,2-dicarboxamide] yielded a Ki greater than 100 nM.

For `N#Cc1cccc(C(N)(CCC2CC2)c2ccc(F)c(NC(=O)[C@H]3C[C@H](N)CN3C(=O)Nc3ccc(Cl)cc3)c2)c1` (stereo partly drawn) [Compound 33d, (2R,4S)-4-amino-N2-(5-((+)-1-amino-1-(3-cyanophenyl)-3-cyclopropylpropyl)-2-fluorophenyl)-N1-(4-chlorophenyl)pyrrolidine-1,2-dicarboxamide], the Ki was greater than 100 nM.

Compound `CO[C@H]1C[C@@H](C(=O)Nc2cc(C(CCC3CC3)(N[S@+]([O-])C(C)(C)C)c3cccc(C#N)c3)ccc2F)N(C(=O)Nc2ccc(Cl)cc2)C1` (stereo partly drawn) [Compound 11d, (2S,4S)-N1-(4-chlorophenyl)-N2-(5-(1-(3-cyanophenyl)-3-cyclopropyl-1-((R)-1,1-dimethylethylsulfinamido)propyl)-2-fluorophenyl)-4-methoxypyrrolidine-1,2-dicarboxamide] has a Ki greater than 100 nM.

Compound `N#Cc1cccc(C(CCC2CC2)(NC(=O)Nc2ccc(Cl)cc2)c2ccc(F)c(NC(=O)[C@H]3C[C@](O)(c4ccccc4)CN3C(=O)Nc3ccc(Cl)cc3)c2)c1` (stereo partly drawn) [Compound 30b, (2R,4S)-N1-(4-chlorophenyl)-N2-(5-((+)-1-(3-(4-chlorophenyl)ureido)-1-(3-cyanophenyl)-3-cyclopropylpropyl)-2-fluorophenyl)-4-hydroxy-4-phenylpyrrolidine-1,2-dicarboxamide] has a Ki of 50 to 100 nM.

`NC(CCC1CC1)(c1ccncc1)c1ccc(F)c(NC(=O)[C@H]2CC(F)(F)CN2C(=O)Nc2ccc(Cl)cn2)c1` (stereo partly drawn) [Compound 53d, (R)-N2-(5-((+)-1-amino-3-cyclopropyl-1-(pyridin-4-yl)propyl)-2-fluorophenyl)-N1-(5-chloropyridin-2-yl)-4,4-difluoropyrrolidine-1,2-dicarboxamide] was tested, and the Ki was less than 50 nM.

Work on `NC(CCC1CC1)(c1ccncc1)c1ccc(F)c(NC(=O)[C@H]2C[C@](O)(c3ccccc3)CN2C(=O)Nc2ccc(Cl)cc2)c1` (stereo partly drawn) [Compound 40a, (2R,4S)-N2-(5-((+)-1-amino-3-cyclopropyl-1-(pyridin-4-yl)propyl)-2-fluorophenyl)-N1-(4-chlorophenyl)-4-hydroxy-4-phenylpyrrolidine-1,2-dicarboxamide] yielded a Ki of less than 50 nM.

For `Cc1ccc(NC(=O)N2C[C@H](O)C[C@@H]2C(=O)Nc2cc(C(N)(CCC3CC3)c3cccc(C#N)c3)ccc2F)cc1` (stereo partly drawn) [Compound 22b, (2R,4R)-N2-(5-((+)-1-amino-1-(3-cyanophenyl)-3-cyclopropylpropyl)-2-fluorophenyl)-4-hydroxy-N1-p-tolylpyrrolidine-1,2-dicarboxamide], the Ki was greater than 100 nM.

In the case of `N#Cc1cccc(C(N)(CCC2CC2)c2ccc(F)c(NC(=O)[C@H]3CCCN3C(=O)Nc3ccc(Cl)cn3)c2)c1` (stereo partly drawn) [Compound 13e, (R)-N2-(5-((+)-1-amino-1-(3-cyanophenyl)-3-cyclopropylpropyl)-2-fluorophenyl)-N1-(5-chloropyridin-2-yl)pyrrolidine-1,2-dicarboxamide], the Ki is reported as greater than 100 nM.

For `CC(C)(C)[S@@+]([O-])NC(CCC1CC1)(c1cccc(C#N)c1)c1ccc(F)c(NC(=O)[C@@H]2C[C@H](O)CN2C(=O)Nc2ccc(Cl)cc2)c1` (stereo partly drawn) [Compound 10b, (2S,4S)-N1-(4-chlorophenyl)-N2-(5-((−)-1-(3-cyanophenyl)-3-cyclopropyl-1-((R)-1,1-dimethylethylsulfinamido)propyl)-2-fluorophenyl)-4-hydroxypyrrolidine-1,2-dicarboxamide], the Ki was greater than 100 nM.

`CO[C@@H]1C[C@H](C(=O)Nc2cc(C(N)(CCC3CC3)c3ccncc3)ccc2F)N(C(=O)Nc2ccc(Cl)s2)C1` (stereo partly drawn) [Compound 81h, (2R,4R)-N2-(5-((−)-1-amino-3-cyclopropyl-1-(pyridin-4-yl)propyl)-2-fluorophenyl)-N1-(5-chlorothiophen-2-yl)-4-methoxypyrrolidine-1,2-dicarboxamide] was tested, and the Ki was less than 50 nM.

For `CNC(CCC1CC1)(c1ccncc1)c1ccc(F)c(NC(=O)[C@H]2C[C@](O)(c3ccccc3)CN2C(=O)Nc2ccc(Cl)cn2)c1` (stereo partly drawn) [Compound 41a, (2R,4S)-N1-(5-chloropyridin-2-yl)-N2-(5-((+)-3-cyclopropyl-1-(methylamino)-1-(pyridin-4-yl)propyl)-2-fluorophenyl)-4-hydroxy-4-phenylpyrrolidine-1,2-dicarboxamide], the Ki was less than 50 nM.

With `NC(CCC1CC1)(c1ccncc1)c1ccc(F)c(NC(=O)[C@H]2C[C@H]3C[C@H]3N2)c1` (stereo partly drawn) [Compound 80c, (1R,3R,5R)-N-(5-((+)-1-amino-3-cyclopropyl-1-(pyridin-4-yl)propyl)-2-fluorophenyl)-2-azabicyclo[3.1.0]hexane-3-carboxamide] the Ki was 50 to 100 nM.

`CO[C@@H]1C[C@H](C(=O)Nc2cc(C(N)(CCC3CC3)c3cccc(C#N)c3)ccc2F)N(C(=O)N(C)c2ccc(Cl)cc2)C1` (stereo partly drawn) [Compound 6e, (2R,4R)-N2-(5-((−)-1-amino-1-(3-cyanophenyl)-3-cyclopropylpropyl)-2-fluorophenyl)-N1-(4-chlorophenyl)-4-methoxy-N1-methylpyrrolidine-1,2-dicarboxamide] was tested, and the Ki was greater than 100 nM.

`CO[C@@H]1C[C@H](C(=O)Nc2cc(C(CCC3CC3)n3ccccc3=O)ccc2F)N(C(=O)Nc2ccc(Cl)cn2)C1` (stereo partly drawn) [Compound 42l, (2R,4R)-N1-(5-chloropyridin-2-yl)-N2-(5-(3-cyclopropyl-1-(2-oxopyridin-1(2H)-yl)propyl)-2-fluorophenyl)-4-methoxypyrrolidine-1,2-dicarboxamide] gave a Ki of less than 50 nM.

With `CCNC(CCC1CC1)(c1ccncc1)c1ccc(F)c(NC(=O)[C@H]2C[C@@H](OC)CN2C(=O)Nc2ccc(Cl)cn2)c1` (stereo partly drawn) [Compound 77a, (2R,4R)-N1-(5-chloropyridin-2-yl)-N2-(5-((+)-3-cyclopropyl-1-(ethylamino)-1-(pyridin-4-yl)propyl)-2-fluorophenyl)-4-methoxypyrrolidine-1,2-dicarboxamide] the Ki was less than 50 nM.

With `CC(C)(C)[S@@+]([O-])NC(CCC1CC1)(c1cccc(C#N)c1)c1ccc(F)c(NC(=O)[C@H]2CCCN2C(=O)OCc2ccccc2)c1` (stereo partly drawn) [Compound 12b, (R)-benzyl 2-(5-((−)-1-(3-cyanophenyl)-3-cyclopropyl-1-((R)-1,1-dimethylethylsulfinamido)propyl)-2-fluorophenylcarbamoyl)pyrrolidine-1-carboxylate] the Ki was greater than 100 nM.

Compound `N#Cc1cccc(C(N)(CCC2CC2)c2ccc(F)c(NC(=O)[C@H]3C[C@](O)(c4ccccc4)CN3C(=O)Nc3ccc(Cl)cn3)c2)c1` (stereo partly drawn) [Compound 29e, (2R,4S)-N2-(5-((+)-1-amino-1-(3-cyanophenyl)-3-cyclopropylpropyl)-2-fluorophenyl)-N1-(5-chloropyridin-2-yl)-4-hydroxy-4-phenylpyrrolidine-1,2-dicarboxamide] has a Ki of less than 50 nM.

With `N#Cc1cccc(C(N)(CCC2CC2)c2ccc(F)c(NC(=O)[C@@H]3C[C@H](O)CN3C(=O)Nc3ccc(Cl)cc3)c2)c1` (stereo partly drawn) [Compound 10c, (2S,4S)-N2-(5-((−)-1-amino-1-(3-cyanophenyl)-3-cyclopropylpropyl)-2-fluorophenyl)-N1-(4-chlorophenyl)-4-hydroxypyrrolidine-1,2-dicarboxamide] the Ki was greater than 100 nM.

For `CC(=O)O[C@@H]1C[C@H](C(=O)Nc2cc(C(N)(CCC3CC3)c3cccc(C#N)c3)ccc2F)N(C(=O)Nc2ccc(Cl)cn2)C1` (stereo partly drawn) [Compound 14g, (3R,5R)-5-(5-((+)-1-amino-1-(3-cyanophenyl)-3-cyclopropylpropyl)-2-fluorophenylcarbamoyl)-1-(5-chloropyridin-2-ylcarbamoyl)pyrrolidin-3-yl acetate], the Ki was greater than 100 nM.

Compound `CC(C)(C)[S@@+]([O-])NC(CCC1CC1)(c1cccc(C#N)c1)c1ccc(F)c(NC(=O)[C@H]2C[C@@H](O)CN2C(=O)Nc2ccc(Cl)cc2)c1` (stereo partly drawn) [Compound 4f, (2R,4R)-N1-(4-chlorophenyl)-N2-(5-((−)-1-(3-cyanophenyl)-3-cyclopropyl-1-((R)-1,1-dimethylethylsulfinamido)propyl)-2-fluorophenyl)-4-hydroxypyrrolidine-1,2-dicarboxamide] has a Ki of 50 to 100 nM.

`N#Cc1cccc(C(N)(CCC2CC2)c2ccc(F)c(NC(=O)[C@H]3C[C@H](O)CN3C(=O)Nc3ccc(Cl)cc3)c2)c1` (stereo partly drawn) [Compound 9c, (2R,4S)-N2-(5-((+)-1-amino-1-(3-cyanophenyl)-3-cyclopropylpropyl)-2-fluorophenyl)-N1-(4-chlorophenyl)-4-hydroxypyrrolidine-1,2-dicarboxamide] gave a Ki greater than 100 nM.

With `CC(C)(C)[S@@+]([O-])NC(CCC1CC1)(c1cccc(C#N)c1)c1ccc(F)c(NC(=O)[C@H]2C[C@@H](O)CN2C(=O)Nc2ccc(C(F)(F)F)cc2)c1` (stereo partly drawn) [Compound 27a, (2R,4R)-N2-(5-((+)-1-(3-cyanophenyl)-3-cyclopropyl-1-((R)-1,1-dimethylethylsulfinamido)propyl)-2-fluorophenyl)-4-hydroxy-N1-(4-(trifluoromethyl)phenyl)pyrrolidine-1,2-dicarboxamide] the Ki was greater than 100 nM.

With `CCC1(O)C[C@H](C(=O)Nc2cc(C(N)(CCC3CC3)c3ccccn3)ccc2F)N(C(=O)Nc2ccc(Cl)cn2)C1` (stereo partly drawn) [Compound 38d, (2R)-N2-(5-((+)-1-amino-3-cyclopropyl-1-(pyridin-2-yl)propyl)-2-fluorophenyl)-N1-(5-chloropyridin-2-yl)-4-ethyl-4-hydroxypyrrolidine-1,2-dicarboxamide] the Ki was less than 50 nM.
